Source: patent US12077503B2, “Substituted cyclic amides and their use as herbicides” (FMC CORPORATION, priority 2015, dated 2024)

Legend:
Format in all cases: in vivo
Kochia (Kochia scoparia) [1] = assay: Test A preemergence; settings: Bassia scoparia, pre-emergence, 240 h, preemergence, 0 to 100 scale where 0 is no effect and 100 is complete control, read-out: Kochia plant response rating; for pest or weed control at 125 g/ha: 125 g ai/ha, visual injury rating, approximately 10 d; for pest or weed control at 500 g/ha: 500 g ai/ha
Outline: (§1)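 Each rating is a visual injury score from 0 to 100 given about 10 d after treatment, judged against untreated controls kept alongside in the greenhouse. In loam soil–sand blend, seeds got a preemergence directed soil spray, while postemergence plants were 2 to 10 cm tall at spraying.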

[2] = tested on: barnyardgrass (Echinochloa crus-galli); assay: Test A preemergence; settings: Echinochloa crus-galli, pre-emergence, 240 h, preemergence, 0 to 100 scale where 0 is no effect and 100 is complete control, read-out: Barnyardgrass plant response rating; for pest or weed control at 125 g/ha: 125 g ai/ha, visual injury rating, approximately 10 d; for pest or weed control at 500 g/ha: 500 g ai/ha
Outline: as §1

[3] = tested on: giant foxtail (Setaria faberii); assay: Test A preemergence; settings: Setaria faberi, pre-emergence, 240 h, preemergence, 0 to 100 scale where 0 is no effect and 100 is complete control, read-out: Foxtail, Giant plant response rating; for pest or weed control at 125 g/ha: 125 g ai/ha, visual injury rating, approximately 10 d; for pest or weed control at 500 g/ha: 500 g ai/ha
Outline: as §1

[4] = tested on: pigweed (Amaranthus retroflexus); assay: Test A preemergence; settings: Amaranthus retroflexus, pre-emergence, 240 h, preemergence, 0 to 100 scale where 0 is no effect and 100 is complete control, read-out: Pigweed plant response rating; for pest or weed control at 125 g/ha: 125 g ai/ha, visual injury rating, approximately 10 d; for pest or weed control at 500 g/ha: 500 g ai/ha
[5] = tested on: ragweed (common ragweed, Ambrosia elatior); assay: Test A preemergence; settings: Ambrosia artemisiifolia, pre-emergence, 240 h, preemergence, 0 to 100 scale where 0 is no effect and 100 is complete control, read-out: Ragweed plant response rating; for pest or weed control at 125 g/ha: 125 g ai/ha, visual injury rating, approximately 10 d; for pest or weed control at 500 g/ha: 500 g ai/ha
Outline: as §1

[6] = tested on: ryegrass, Italian (Italian ryegrass, Lolium multiflorum); assay: Test A preemergence; settings: Lolium multiflorum, pre-emergence, 240 h, preemergence, 0 to 100 scale where 0 is no effect and 100 is complete control, read-out: Ryegrass, Italian plant response rating; for pest or weed control at 125 g/ha: 125 g ai/ha, visual injury rating, approximately 10 d; for pest or weed control at 500 g/ha: 500 g ai/ha
Outline: as §1

Kochia (Kochia scoparia) [7] = assay: Test A postemergence; settings: Bassia scoparia, post-emergence, 240 h, postemergence; for pest or weed control at 125 g/ha: 125 g ai/ha, visual injury vs untreated controls after approx. 10 d, 0 = no effect, 100 = complete control, read-out: Kochia plant response rating (0 to 100 scale); for pest or weed control at 500 g/ha: 500 g ai/ha, 0 to 100 scale, 0 is no effect, 100 is complete control, read-out: Kochia plant response rating
Outline: as §1

[8] = tested on: barnyardgrass (Echinochloa crus-galli); assay: Test A postemergence; settings: Echinochloa crus-galli, post-emergence, 240 h, postemergence; for pest or weed control at 125 g/ha: 125 g ai/ha, visual injury vs untreated controls after approx. 10 d, 0 = no effect, 100 = complete control, read-out: Barnyardgrass plant response rating (0 to 100 scale); for pest or weed control at 500 g/ha: 500 g ai/ha, 0 to 100 scale, 0 is no effect, 100 is complete control, read-out: Barnyardgrass plant response rating
Outline: as §1

[9] = tested on: giant foxtail (Setaria faberii); assay: Test A postemergence; settings: Setaria faberi, post-emergence, 240 h, postemergence; for pest or weed control at 125 g/ha: 125 g ai/ha, visual injury vs untreated controls after approx. 10 d, 0 = no effect, 100 = complete control, read-out: Foxtail, Giant plant response rating (0 to 100 scale); for pest or weed control at 500 g/ha: 500 g ai/ha, 0 to 100 scale, 0 is no effect, 100 is complete control, read-out: Foxtail, Giant plant response rating
Outline: as §1

[10] = tested on: wheat (Triticum aestivum); assay: Test A postemergence; settings: Triticum aestivum, post-emergence, 240 h, postemergence; for plant injury at 125 g/ha: 125 g ai/ha, visual injury vs untreated controls after approx. 10 d, 0 = no effect, 100 = complete control, read-out: Wheat plant response rating (0 to 100 scale); for plant injury at 500 g/ha: 500 g ai/ha, 0 to 100 scale, 0 is no effect, 100 is complete control, read-out: Wheat plant response rating
Outline: as §1

[11] = tested on: barnyardgrass (Echinochloa crus-galli); assay: Test B flooded paddy test; settings: Echinochloa crus-galli, 250 g ai/ha, Flood; 0 to 100 scale where 0 is no effect and 100 is complete control; read-out: Barnyardgrass plant response rating
Outline: (§2)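 Response scored visually against untreated controls, 0 = no effect and 100 = complete control, 13–15 d after treatment in the greenhouse. Compounds added to paddy water held 3 cm above soil surface. Treatment given at 2-leaf stage.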

[12] = tested on: ducksalad (Heteranthera limosa); assay: Test B flooded paddy test; settings: Heteranthera limosa, 250 g ai/ha, Flood; 0 to 100 scale where 0 is no effect and 100 is complete control; read-out: Ducksalad plant response rating
Outline: as §2

rice (Oryra sativa) = assay: Test B flooded paddy test; settings: Oryza sativa, 250 g ai/ha, Flood; 0 to 100 scale where 0 is no effect and 100 is complete control; read-out: Rice plant response rating
Outline: as §2

[13] = tested on: sedge, umbrella (small-flower umbrella sedge, Cyperus difformis); assay: Test B flooded paddy test; settings: Cyperus difformis, 250 g ai/ha, Flood; 0 to 100 scale where 0 is no effect and 100 is complete control; read-out: Sedge, Umbrella plant response rating
Outline: as §2

SMILES | pest or weed control at 125 g/ha (Kochia (Kochia scoparia) [1]) [%] | pest or weed control at 500 g/ha (Kochia (Kochia scoparia) [1]) [%] | pest or weed control at 125 g/ha [2] [%] | pest or weed control at 500 g/ha [2] [%] | pest or weed control at 125 g/ha [3] [%] | pest or weed control at 500 g/ha [3] [%] | pest or weed control at 125 g/ha [4] [%] | pest or weed control at 500 g/ha [4] [%] | pest or weed control at 125 g/ha [5] [%] | pest or weed control at 500 g/ha [5] [%] | pest or weed control at 125 g/ha [6] [%] | pest or weed control at 500 g/ha [6] [%] | pest or weed control at 125 g/ha (Kochia (Kochia scoparia) [7]) [%] | pest or weed control at 500 g/ha (Kochia (Kochia scoparia) [7]) [%] | pest or weed control at 125 g/ha [8] [%] | pest or weed control at 500 g/ha [8] [%] | pest or weed control at 125 g/ha [9] [%] | pest or weed control at 500 g/ha [9] [%] | plant injury at 125 g/ha [10] [%] | plant injury at 500 g/ha [10] [%] | further results
CN1C[C@H](c2ccc(C#N)cc2)[C@@H](C(=O)Nc2ccccc2F)C1=O [Compound 1207] | 30 | 90 | 60 | 100 | 80 | 100 | 0 | 60 | 30 | 90 | 0 | 20 | 20 | 60 | 70 | 100 | 50 | 90 | 0 | 0 | pest or weed control at 250 g/ha [11]: 0%; pest or weed control at 250 g/ha [12]: 100%; pest or weed control at 250 g/ha (rice (Oryra sativa)): 0%; pest or weed control at 250 g/ha [13]: 0%
CN1C[C@H](c2ccc(C#N)cc2)[C@@H](C(=O)Nc2cccc(F)c2F)C1=O [Compound 1208] | 70 | 100 | 90 | 100 | 100 | 100 | 60 | 90 | 40 | 100 | 20 | 70 | 70 | 70 | 100 | 100 | 70 | 90 | 0 | 20 | pest or weed control at 250 g/ha [11]: 45%; pest or weed control at 250 g/ha [12]: 95%; pest or weed control at 250 g/ha (rice (Oryra sativa)): 15%; pest or weed control at 250 g/ha [13]: 0%
